The text below walks through data of patent US10939678B2, “Adjuvant compositions and related methods for reducing herbicide volatility” (BOARD OF TRUSTEES OF MICHIGAN STATE UNIVERSITY, priority 2015, dated 2021).

For series [1] the following is noted: approximate, by way of illustration; cited from earlier work.
In series [2] the test system is soybean plants (PIONEER 92M92). The series can be described thus: Bioassay of herbicide volatility from sprayed wheat to soybean plants in plant growth chambers (visual soybean injury). The series is classed as in vivo. Particulars: 1.12 kg a.i./ha, without any adjuvants. An excerpt: A wide range of soil, plant, environmental, and herbicide factors (e.g., vapor pressure and water solubility of herbicide, surface characteristics) can affect herbicide volatility from soils and plants. Comparison of the volatilization would be most readily visualized by appropriate bioassay systems. These examples illustrate a bioassay system for evaluating herbicide volatilization from plant substrates. In the bioassay system, a herbicide composition including a volatile growth regulator herbicide (2,4-D) and one or more adjuvants was applied foliarly to wheat plants (amber red wheat). Twenty minutes later, soybean plants (PIONEER 92M92 soybean plants) sensitive to the volatile growth regulator herbicide were placed in the middle of the sprayed wheat plants.
Measurement of herbicide volatility from wheat to soybean. Plant growth chambers formed from clear circular plastic containers (about 27 cm diameter) with a spacer pot in the middle were used to grow wheat plants (from amber red wheat seed) in a professional potting mix. […] The herbicide compositions were prepared and applied at a rate of 0.84 kg a.i./ha (active ingredient per hectare) at 93.5 L/ha (10 gal/acre) and 172 kPa (25 psi) using a flat fan nozzle tip (TEEJET XR8001E or equivalent; available from Spraying Systems, Co., Wheaton, Ill.).
Soybean plants (PIONEER 92M92) were seeded into 10 cm diameter round pots. A single pot with soybean plants was placed in the center of each circular plastic container 20 minutes after spraying the wheat with the respective herbicide treatment composition (i.e., with the soybean plant pot replacing the spacer pot present during wheat growth and herbicide composition application). Open clear plastic cylinders were then taped to the top of the circular containers and placed in a greenhouse. The open clear plastic cylinders were tall enough to add an open circumferential wall (about 28 cm high and having a circular top opening about 20 cm in diameter) to the plant growth chambers (i.e., with the height being relative to the soil surface for the wheat and soybean plants). Visual evaluation of soybean injury was evaluated 7, 10, 14, and 21 days after treatment/application (DAT) of the herbicide composition and continued growth under greenhouse conditions. Data were subjected to analysis of variance using PROC GLM in SAS and the results are the means of two experiments with four replications in each.
Similar trials were also performed using herbicide compositions with volatile dicamba volatile growth regulator herbicides (dimethylamine salt of dicamba (BANVEL) and diglycolamine salt of dicamba (CLARITY)) at 1.12 kg a.i./ha in place of 2,4-D and without any adjuvants.

Structures are written as SMILES. Where a name gives a salt, the structure may show the parent alone.

Consider `CCCCC(CC)COC(=O)COc1ccc(Cl)cc1Cl` (stereo not drawn) [2,4-D 2-ethylhexyl ester], for which the vapor pressure in series [1] was ~4.8×10^−4 Pa.

As to `CCCCOCCOC(=O)COc1ccc(Cl)cc1Cl` [2,4-D butoxyethyl ester], the vapor pressure in series [1] is recorded as ~3.2×10^−4 Pa.

`CC(C)OC(=O)COc1ccc(Cl)cc1Cl` [2,4-D isopropyl ester]: the vapor pressure in series [1] is recorded as ~1.9×10^1 Pa.

Regarding `COc1c(Cl)ccc(Cl)c1C(=O)O` [diglycolamine salt of dicamba, 3,6-dichloro-2-methoxybenzoic acid], the results for the “% injury of soybean plants from dicamba volatility” value in series [2] (7-DAT), in series [2] (14-DAT) and in series [2] (21-DAT) were “about 28%”, “about 31%” and “about 41%”, respectively.

With `COc1c(Cl)ccc(Cl)c1C(=O)O` [dimethylamine salt of dicamba, 3,6-dichloro-2-methoxybenzoic acid], the “% injury of soybean plants from dicamba volatility” value in series [2] (7-DAT) is approximately 39%; in series [2] (14-DAT), approximately 39%; in series [2] (21-DAT), “about 41%”.
